Experimental data published in patent US20240400555A1 (Initial Therapeutics, Inc., priority 2023, published 2024).

Tested on: HCT-116 Firefly-luciferase reporter cells
Experiment: Cellular c-MYC Reporter Assay
Type: cell-based
Details: Homo sapiens; untitled table following Table 8a; HCT-116 Firefly-luciferase reporter cells, 24 h; read-out: pIC50 (converted)
In short: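 Reporter cells seeded at 5e4 cells/mL in McCoy's 5A with 10% FBS and G418, dosed after 4–6 h at 0.2% final DMSO. After 24 h at 37 °C, luciferase luminescence was read with ONE-Glo.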

SMILES	IC50
N#Cc1cccc2ccnc(N(C(=O)c3ccc(-n4nnc5cccnc54)cc3F)[C@@H]3CCCNC3)c12 [Example 164, (R)-4-(3H-[1,2,3]triazolo[4,5-b]pyridin-3-yl)-N-(8-cyanoisoquinolin-1-yl)-2-fluoro-N-(piperidin-3-yl)benzamide]	97.7 nM
O=C(c1ccc(-n2nnc3cccnc32)cc1F)N(c1nccc2cccc(/C=C/CO)c12)[C@@H]1CCCNC1 [Example 165, (R,E)-4-(3H-[1,2,3]triazolo[4,5-b]pyridin-3-yl)-2-fluoro-N-(8-(3-hydroxyprop-1-en-1-yl)isoquinolin-1-yl)-N-(piperidin-3-yl)benzamide]	170 nM
O=C(c1ccc(-n2nnc3cccnc32)cc1F)N(c1nccc2cccc(/C=C/CCO)c12)[C@@H]1CCCNC1 [Example 166, (R,E)-4-(3H-[1,2,3]triazolo[4,5-b]pyridin-3-yl)-2-fluoro-N-(8-(4-hydroxybut-1-en-1-yl)isoquinolin-1-yl)-N-(piperidin-3-yl)benzamide]	141 nM
COC(=O)c1cccnc1N(C(=O)c1ccc(-n2nnc3cccnc32)cc1F)[C@@H]1CCCNC1 [Example 167, methyl (R)-2-(4-(3H-[1,2,3]triazolo[4,5-b]pyridin-3-yl)-2-fluoro-N-(piperidin-3-yl)benzamido)nicotinate]	661 nM
Cc1cccc2ccnc(N(C(=O)c3ccc(CO)cc3F)[C@@H]3CCCNC3)c12 [Example 168, (R)-2-fluoro-4-(hydroxymethyl)-N-(8-methylisoquinolin-1-yl)-N-(piperidin-3-yl)benzamide]	5250 nM
Cc1cccc2ccnc(N(C(=O)c3ccc(Nc4nc5ccccn5n4)cc3F)[C@@H]3CCCNC3)c12 [Example 169, (R)-4-([1,2,4]triazolo[1,5-a]pyridin-2-ylamino)-2-fluoro-N-(8-methylisoquinolin-1-yl)-N-(piperidin-3-yl)benzamide]	316 nM
Cc1cccc2ccnc(N(C(=O)c3ccc(-n4nnc5ccc(C(N)=O)nc54)cc3F)[C@@H]3CCCNC3)c12 [Example 170, (R)-3-(3-fluoro-4-((8-methylisoquinolin-1-yl)(piperidin-3-yl)carbamoyl)phenyl)-3H-[1,2,3]triazolo[4,5-b]pyridine-5-carboxamide]	56.2 nM
Cc1cccc2ccnc(N(C(=O)c3ccc(-n4nnc5ccc(-c6ccccc6)nc54)cc3F)[C@@H]3CCCNC3)c12 [Example 171, (R)-2-fluoro-N-(8-methylisoquinolin-1-yl)-4-(5-phenyl-3H-[1,2,3]triazolo[4,5-b]pyridin-3-yl)-N-(piperidin-3-yl)benzamideamide]	288 nM
Cc1cccc2ccnc(N(C(=O)c3ccc(N4CC(C)NC4=O)cc3F)[C@@H]3CCCNC3)c12 (stereo partly drawn) [Example 172, 2-fluoro-4-(4-methyl-2-oxoimidazolidin-1-yl)-N-(8-methylisoquinolin-1-yl)-N—((R)-piperidin-3-yl)benzamide]	6030 nM
Cc1cccc2ccnc(N(C(=O)N3CCC(c4nn(C)c(=O)o4)CC3)[C@@H]3CCCNC3)c12 [Example 174, (R)-4-(4-methyl-5-oxo-4,5-dihydro-1,3,4-oxadiazol-2-yl)-N-(8 methylisoquinolin-1-yl)-N-(piperidin-3-yl)piperidine-1-carboxamide]	3550 nM
Cc1cccc2ccnc(N(C(=O)c3ccc(-n4nnc5cccnc54)cc3F)[C@H]3CNCC(F)(F)C3)c12 [Example 175, (R)-4-(3H-[1,2,3]triazolo[4,5-b]pyridin-3-yl)-N-(5,5-difluoropiperidin-3-yl)-2-fluoro-N-(8-methylisoquinolin-1-yl)benzamide]	9330 nM
O=C(c1ccc(-n2nnc3cccnc32)cc1F)N(c1ncccc1-c1cn[nH]c1)[C@@H]1CCCNC1 [Example 176, (R)—N-(3-(1H-pyrazol-4-yl)pyridin-2-yl)-4-(3H-[1,2,3]triazolo[4,5-b]pyridin-3-yl)-2-fluoro-N-(piperidin-3-yl)benzamide]	933 nM
O=C(c1ccc(-n2nnc3cccnc32)cc1F)N(c1ncccc1-c1ccsc1)[C@@H]1CCCNC1 [Example 177, (R)-4-(3H-[1,2,3]triazolo[4,5-b]pyridin-3-yl)-2-fluoro-N-(piperidin-3-yl)-N-(3-(thiophen-3-yl)pyridin-2-yl)benzamide]	355 nM
Cc1nnn(-c2ccc(C(=O)N(c3nccc4cccc(C)c34)[C@@H]3CCCNC3)cc2)n1 [Example 179, (R)-4-(5-methyl-2H-tetrazol-2-yl)-N-(8-methylisoquinolin-1-yl)-N-(piperidin-3-yl)benzamide]	72.4 nM
Cc1ccnc(N(C)c2ccc(C(=O)N(c3nccc4cccc(C)c34)[C@@H]3CCCNC3)c(F)c2)n1 [Example 180, (R)-2-fluoro-4-(methyl (4-methylpyrimidin-2-yl)amino)-N-(8-methylisoquinolin-1-yl)-N-(piperidin-3-yl)benzamide]	3390 nM
Cc1cc(C2CCN(C(=O)N(c3nccc4cccc(C)c34)[C@@H]3CCCCNC3)CC2)on1 [Example 181, (R)—N-(azepan-3-yl)-N-(8-methylisoquinolin-1-yl)-4-(3-methylisoxazol-5-yl)piperidine-1-carboxamide]	11000 nM
Cc1nccnc1-c1ccc(C(=O)N(c2nccc3cccc(Cl)c23)[C@@H]2CCCNC2)c(F)c1 [Example 182, (R)—N-(8-chloroisoquinolin-1-yl)-2-fluoro-4-(3-methylpyrazin-2-yl)-N-(piperidin-3-yl)benzamide]	891 nM

SMILES	IC50
Cc1cccc2ccnc(N(C(=O)c3ccc(Nc4ncccn4)cn3)[C@@H]3CCCNC3)c12 [Example 184, (R)—N-(8-methylisoquinolin-1-yl)-N-(piperidin-3-yl)-5-(pyrimidin-2-ylamino) picolinamide]	1550 nM
Cc1cccc2ccnc(N(C(=O)c3ccc(Nc4ncccn4)cc3F)[C@@H]3CCCCNC3)c12 [Example 185, (R)—N-(azepan-3-yl)-2-fluoro-N-(8-methylisoquinolin-1-yl)-4-(pyrimidin-2-ylamino)benzamide]	3310 nM
Cc1cnc(Nc2ccc(C(=O)N(c3nccc4cccc(C)c34)[C@@H]3CCCNC3)c(F)c2)nc1 [Example 186, (R)-2-fluoro-N-(8-methylisoquinolin-1-yl)-4-((5-methylpyrimidin-2-yl)amino)-N-(piperidin-3-yl)benzamide]	200 nM
COc1ccc2nnn(-c3ccc(C(=O)N(c4nccc5cccc(C)c45)[C@@H]4CCCNC4)c(F)c3)c2n1 [Example 187, (R)-2-fluoro-4-(5-methoxy-3H-[1,2,3]triazolo[4,5-b]pyridin-3-yl)-N-(8-methylisoquinolin-1-yl)-N-(piperidin-3-yl)benzamide]	50.1 nM
Cc1cccc2ccnc(N(C(=O)N3CCC(Oc4ccccc4)CC3)[C@@H]3CCCNC3)c12 [Example 189, (R)—N-(8-methylisoquinolin-1-yl)-4-phenoxy-N-(piperidin-3-yl)-1-carboxamide]	5620 nM
CC1(c2ccno2)CCN(C(=O)N(c2cc3ccccc3cn2)[C@@H]2CCCNC2)CC1 [Example 190, (R)—N-(isoquinolin-3-yl)-4-(isoxazol-5-yl)-4-methyl-N-(piperidin-3-yl)piperidine-1-carboxamide]	5890 nM
Cc1cccc2ccnc(N(C(=O)c3ccc(-n4nnc5ccc(C#N)nc54)cc3F)[C@@H]3CCCNC3)c12 [Example 191, (R)-4-(5-cyano-3H-[1,2,3]triazolo[4,5-b]pyridin-3-yl)-2-fluoro-N-(8-methylisoquinolin-1-yl)-N-(piperidin-3-yl)benzamide]	10.7 nM
Cc1cccc2ccnc(N(C(=O)c3ccc(-n4nnc5ccc(Cl)nc54)cc3F)[C@@H]3CCCNC3)c12 [Example 192, (R)-4-(5-chloro-3H-[1,2,3]triazolo[4,5-b]pyridin-3-yl)-2-fluoro-N-(8-methylisoquinolin-1-yl)-N-(piperidin-3-yl)benzamide]	170 nM
Cc1cccc2ccnc(N(C(=O)c3ccc(-c4cn(C)nn4)cc3F)[C@@H]3CCCNC3)c12 [Example 193, (R)-2-fluoro-4-(1-methyl-1H-1,2,3-triazol-4-yl)-N-(8-methylisoquinolin-1-yl)-N-(piperidin-3-yl)benzamide]	79.4 nM
Cc1cccc2ccnc(N(C(=O)c3ccc(-n4nccn4)cc3F)[C@@H]3CCCNC3)c12 [Example 194, (R)-2-fluoro-N-(8-methylisoquinolin-1-yl)-N-(piperidin-3-yl)-4-(2H-1,2,3-triazol-2-yl)benzamide]	1200 nM
Cc1nnn(-c2ccc(C(=O)N(c3nccc4cccc(C)c34)[C@@H]3CCCNC3)c(F)c2)n1 [Example 195, (R)-2-fluoro-4-(5-methyl-2H-tetrazol-2-yl)-N-(8-methylisoquinolin-1-yl)-N-(piperidin-3-yl) benzamide]	87.1 nM
Cc1cccc2ccnc(N(C(=O)c3ccc(-c4onc5ccccc45)cc3F)[C@@H]3CCCNC3)c12 [Example 196, (R)-4-(benzo[c]isoxazol-3-yl)-2-fluoro-N-(8-methylisoquinolin-1-yl)-N-(piperidin-3-yl)benzamide]	> 20000 nM
Cc1cccc2ccnc(N(C(=O)c3ccc(-c4cncc(C#N)n4)cc3F)[C@@H]3CCCNC3)c12 [Example 198, (R)-2-fluoro-N-(8-methylisoquinolin-1-yl)-4-(6-cyanopyrazin-2-yl)-N-(piperidin-3-yl)benzamide]	617 nM
Cc1cc(C2CCN(C(=O)N(c3nccc4cccc(C)c34)[C@@H]3CCCNC3)CC2)ccn1 [Example 199, (R)—N-(8-methylisoquinolin-1-yl)-4-(2-methylpyridin-4-yl)-N-(piperidin-3-yl)piperidine-1-carboxamide]	263 nM
O=C(c1ncc(-n2nnc3cccnc32)cc1F)N(c1nccc2cccc(Cl)c12)[C@@H]1CCCNC1 [Example 200, (R)-5-(3H-[1,2,3]triazolo[4,5-b]pyridin-3-yl)-N-(8-chloroisoquinolin-1-yl)-3-fluoro-N-(piperidin-3-yl)picolinamide]	77.6 nM
Cc1cccc2ccnc(N(C(=O)c3ncc(-n4nnc5cccnc54)cc3F)[C@@H]3CCCNC3)c12 [Example 201, (R)-5-(3H-[1,2,3]triazolo[4,5-b]pyridin-3-yl)-3-fluoro-N-(8-methylisoquinolin-1-yl)-N-(piperidin-3-yl)picolinamide]	148 nM
